Results on five compounds are retold here after PubChem BioAssay AID2060328 (Molecular Pharmacology Branch, DTP, NCI, 2025).

Where “and” joins values, the source holds several entries; their conditions need not be identical. Identical values can stand only once.

This experiment has as its system MDA-MB-231 multicell spheroids, viability (%T/C). The experiment in a line: Anticancer human tumor MDA-MB-231 cell line growth inhibition [IpAb].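 For all read-outs here: viability read after seven days of drug exposure.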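 For viability, T/C: 100% = DMSO vehicle control viability.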 The conditions noted are these: for viability, T/C: stronger effect = lower value. In a few lines:
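Multi-cell spheroids of 60% tumour cells, 25% HUVEC and 15% MSC in ultra-low-attachment U-bottom wells, treated with agents combined with ipatasertib or abemaciclib. Half-log ranges top out near clinical Cmax, or 10 microM when Cmax is unknown.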

The mark [1] stands for this setting: curve of first compound, second compound 0.1 µM.
Where [2] appears, read: curve of first compound, second compound 0.316 µM.
Where [3] appears, read: curve of first compound, second compound 1 µM.
The mark [4] stands for this setting: curve of first compound, second compound 3.16 µM.
Where [5] appears, read: curve of first compound, second compound 10 µM.
Setting [6] is: second compound 0.1 µM, first compound 0.0316 µM.
[7] abbreviates: second compound 0.1 µM, first compound 0.1 µM.
[8] abbreviates: second compound 0.316 µM, first compound 0.0316 µM.
Where [9] appears, read: second compound 0.316 µM, first compound 0.1 µM.
The mark [10] stands for this setting: second compound 1 µM, first compound 0.0316 µM.
The mark [11] stands for this setting: second compound 1 µM, first compound 0.1 µM.
[12] abbreviates: second compound 3.16 µM, first compound 0.0316 µM.
The mark [13] stands for this setting: second compound 3.16 µM, first compound 0.1 µM.
Where [14] appears, read: second compound 10 µM, first compound 0.0316 µM.
The mark [15] stands for this setting: second compound 10 µM, first compound 0.1 µM.

In the case of `CC1(C)CCC(CN2CCN(c3ccc(C(=O)NS(=O)(=O)c4ccc(NCC5CCOCC5)c([N+](=O)[O-])c4)c(Oc4cnc5[nH]ccc5c4)c3)CC2)=C(c2ccc(Cl)cc2)C1`, the viability, T/C (commonly the ratio of treated to control) (compound 0.0316 µM) was 104% and 106%; the viability, T/C (compound 0.1 µM) was 105% and 104%; the viability, T/C (compound 0.316 µM) was 103% and 105%; the viability, T/C (compound 1 µM) was 98.5% and 103%; the viability, T/C (compound 3.16 µM) was 88.7% and 99.5%; the viability, T/C (compound 10 µM) was 10.3% and 8.49%. Besides, the IC50 (in general, the concentration needed to halve the response being measured) (curve of compound) was 5570 nM and 5910 nM.
In the case of `Cn1cnc2c(F)c(Nc3ccc(Br)cc3Cl)c(C(=O)NOCCO)cc21` + CCN1CCN(Cc2ccc(Nc3ncc(F)c(-c4cc(F)c5nc(C)n(C(C)C)c5c4)n3)nc2)CC1, the IC50 is 34.1 nM (curve of first compound, second compound 0.01 µM); less than 9.49 nM (curve of first compound, second compound 0.0316 µM); less than 9.49 nM under setting [1]; less than 9.49 nM under setting [2]; less than 9.49 nM under setting [3]. Moreover, the viability, T/C reads like this: (second compound 0.01 µM, first compound 0.00949 µM) 54.5%; (second compound 0.01 µM, first compound 0.03 µM) 53.4%; (second compound 0.01 µM, first compound 0.0949 µM) 42.8%; (second compound 0.01 µM, first compound 0.3 µM) 36.9%; (second compound 0.01 µM, first compound 0.949 µM) 32.3%; (second compound 0.01 µM, first compound 3 µM) 20.4%. The viability, T/C is, setting by setting: (second compound 0.0316 µM, first compound 0.00949 µM) 46.3%; (second compound 0.0316 µM, first compound 0.03 µM) 40.9%; (second compound 0.0316 µM, first compound 0.0949 µM) 35.9%; (second compound 0.0316 µM, first compound 0.3 µM) 30.9%; (second compound 0.0316 µM, first compound 0.949 µM) 25.5%; (second compound 0.0316 µM, first compound 3 µM) 13.3%. Also, the viability, T/C reads like this: (second compound 0.1 µM, first compound 0.00949 µM) 36.9%; (second compound 0.1 µM, first compound 0.03 µM) 30.1%; (second compound 0.1 µM, first compound 0.0949 µM) 29.6%; (second compound 0.1 µM, first compound 0.3 µM) 25.4%; (second compound 0.1 µM, first compound 0.949 µM) 19.2%; (second compound 0.1 µM, first compound 3 µM) 12.2%. Also, the viability, T/C was 28.2% (second compound 0.316 µM, first compound 0.00949 µM); 27% (second compound 0.316 µM, first compound 0.03 µM); 22% (second compound 0.316 µM, first compound 0.0949 µM); 19.2% (second compound 0.316 µM, first compound 0.3 µM); 16.1% (second compound 0.316 µM, first compound 0.949 µM); 9.49% (second compound 0.316 µM, first compound 3 µM). In addition, the viability, T/C reads like this: (second compound 1 µM, first compound 0.00949 µM) 28.7%; (second compound 1 µM, first compound 0.03 µM) 25.3%; (second compound 1 µM, first compound 0.0949 µM) 20.1%; (second compound 1 µM, first compound 0.3 µM) 17.4%; (second compound 1 µM, first compound 0.949 µM) 14.9%; (second compound 1 µM, first compound 3 µM) 10.7%.
For the compound `Cn1ncnc1[C@H]1c2n[nH]c(=O)c3cc(F)cc(c23)N[C@@H]1c1ccc(F)cc1` + CC(C)NCC(C(=O)N1CCN(c2ncnc3c2C(C)CC3O)CC1)c1ccc(Cl)cc1, the IC50 reads like this: under setting [1], greater than 100 nM; under setting [2], greater than 100 nM; under setting [3], greater than 100 nM; under setting [4], 2.35 nM; under setting [5], less than 0.316 nM. Besides, the viability, T/C reads like this: (second compound 0.1 µM, first compound 0.000316 µM) 96.6%; (second compound 0.1 µM, first compound 0.001 µM) 89.4%; (second compound 0.1 µM, first compound 0.00316 µM) 81.9%; (second compound 0.1 µM, first compound 0.01 µM) 78.9%; under setting [6], 76.6%; under setting [7], 73.1%. In addition, the viability, T/C (second compound 0.316 µM, first compound 0.000316 µM) is 83.9%; the viability, T/C (second compound 0.316 µM, first compound 0.001 µM) is 77%; the viability, T/C (second compound 0.316 µM, first compound 0.00316 µM) was 71.8%; the viability, T/C (second compound 0.316 µM, first compound 0.01 µM) is 70.1%; the viability, T/C under setting [8] was 69.1%; the viability, T/C under setting [9] was 62.1%. For the same compound, the viability, T/C was 70.4% (second compound 1 µM, first compound 0.000316 µM); 68.9% (second compound 1 µM, first compound 0.001 µM); 59.2% (second compound 1 µM, first compound 0.00316 µM); 58% (second compound 1 µM, first compound 0.01 µM); 56.8% under setting [10]; 56.5% under setting [11]. Further, the viability, T/C is, setting by setting: (second compound 3.16 µM, first compound 0.000316 µM) 54.6%; (second compound 3.16 µM, first compound 0.001 µM) 54.3%; (second compound 3.16 µM, first compound 0.00316 µM) 49.6%; (second compound 3.16 µM, first compound 0.01 µM) 44.9%; under setting [12], 45.7%; under setting [13], 47%. Moreover, the viability, T/C (second compound 10 µM, first compound 0.000316 µM) is 42.3%; the viability, T/C (second compound 10 µM, first compound 0.001 µM) is 41%; the viability, T/C (second compound 10 µM, first compound 0.00316 µM) is 38.5%; the viability, T/C (second compound 10 µM, first compound 0.01 µM) is 33.8%; the viability, T/C under setting [14] is 34.9%; the viability, T/C under setting [15] is 34.1%.
With `CCCS(=O)(=O)Nc1ccc(F)c(C(=O)c2c[nH]c3ncc(-c4ccc(Cl)cc4)cc23)c1F` + CC(C)NCC(C(=O)N1CCN(c2ncnc3c2C(C)CC3O)CC1)c1ccc(Cl)cc1, the 50% inhibitory concentration (IC50) is 8310 nM under setting [1]; 6040 nM under setting [2]; 5310 nM under setting [3]; 1760 nM under setting [4]; less than 31.6 nM under setting [5]. The viability, T/C runs as follows: under setting [6], 106%; under setting [7], 106%; (second compound 0.1 µM, first compound 0.316 µM) 104%; (second compound 0.1 µM, first compound 1 µM) 97.2%; (second compound 0.1 µM, first compound 3.16 µM) 75.4%; (second compound 0.1 µM, first compound 10 µM) 45.1%. The viability, T/C is, setting by setting: under setting [8], 98.1%; under setting [9], 95.9%; (second compound 0.316 µM, first compound 0.316 µM) 92.2%; (second compound 0.316 µM, first compound 1 µM) 87.3%; (second compound 0.316 µM, first compound 3.16 µM) 61.2%; (second compound 0.316 µM, first compound 10 µM) 41.1%. In addition, the viability, T/C under setting [10] was 80.1%; the viability, T/C under setting [11] was 84.8%; the viability, T/C (second compound 1 µM, first compound 0.316 µM) was 79.8%; the viability, T/C (second compound 1 µM, first compound 1 µM) is 71.3%; the viability, T/C (second compound 1 µM, first compound 3.16 µM) was 60.1%; the viability, T/C (second compound 1 µM, first compound 10 µM) is 38.3%. In addition, the viability, T/C is 59.3% under setting [12]; 68.2% under setting [13]; 61.7% (second compound 3.16 µM, first compound 0.316 µM); 56.7% (second compound 3.16 µM, first compound 1 µM); 42.9% (second compound 3.16 µM, first compound 3.16 µM); 30.9% (second compound 3.16 µM, first compound 10 µM). The viability, T/C runs as follows: under setting [14], 45.4%; under setting [15], 48.2%; (second compound 10 µM, first compound 0.316 µM) 44.2%; (second compound 10 µM, first compound 1 µM) 36.6%; (second compound 10 µM, first compound 3.16 µM) 35%; (second compound 10 µM, first compound 10 µM) 27.6%.
As to `CC(C)n1nc(-c2ccc3oc(N)nc3c2)c2c(N)ncnc21`, the viability, T/C reads like this: (compound 0.000316 µM) 97.7% and 101%; (compound 0.001 µM) 86.1% and 104%; (compound 0.00316 µM) 72.2% and 72.1%; (compound 0.01 µM) 57.6% and 49.4%; (compound 0.0316 µM) 46.5% and 41.5%; (compound 0.1 µM) 43.5% and 37.4%. Further, the IC50 (curve of compound) was 23.8 nM and 8.68 nM.
